Source: DBAASP
Converted amounts (≈) assume the structure as drawn. Each block holds one molecule with its values, some of them ahead of it.

Assays:
Assay in all cases: ≥ marks a high value that may be exact or a test limit, other limits are often not marked, values filed in µg/mL are converted to µM
[1] = tested on: Fusarium graminearum PH-1
[2] = tested on: Staphylococcus aureus ATCC 25923
[3] = tested on: Escherichia coli ATCC 25322
[4] = tested on: Pseudomonas aeruginosa H103
[5] = tested on: Candida albicans C627
[6] = tested on: Pseudomonas aeruginosa LES400
[7] = tested on: Escherichia coli ESBL 63103
[8] = tested on: Staphylococcus aureus C623
[9] = tested on: Enterococcus faecium mic80
[10] = tested on: Pseudomonas aeruginosa 213
[11] = tested on: Salmonella typhimurium
[12] = tested on: Pseudomonas aeruginosa
[13] = tested on: Staphylococcus epidermidis
[14] = tested on: Streptococcus pyogenes
[15] = tested on: Bacillus subtilis
[16] = tested on: Escherichia coli
[17] = tested on: Proteus vulgaris
[18] = tested on: Staphylococcus aureus
[19] = tested on: Acinetobacter baumannii
[20] = tested on: Micrococcus luteus
[21] = tested on: Stenotrophomonas maltophilia
[22] = tested on: Escherichia coli DH5alpha
[23] = tested on: Corynebacterium glutamicum ATCC 13032
[24] = tested on: Bacillus cereus ATCC 14579
[25] = tested on: Escherichia coli ATCC 25922
[26] = tested on: Pectobacterium carotovorum
[27] = tested on: Trichoderma asperellum
[28] = tested on: Bacillus subtilis ATCC 23857
[29] = tested on: Candida albicans ATCC 90028
[30] = tested on: Cryptococcus neoformans ATCC 28957
[31] = tested on: Pseudomonas aeruginosa ATCC 27853
[32] = tested on: Pseudomonas syringae pv. tabaci
[33] = tested on: Xanthomonas campestris pv. citri
[34] = tested on: Ramulariopsis gossypii
[35] = tested on: Fusarium oxysporum
[36] = tested on: Fusarium oxysporum f.sp. vasinfectum
[37] = tested on: Fusarium solani
[38] = tested on: Staphylococcus epidermidis ATCC 12228
[39] = tested on: Klebsiella pneumoniae ATCC 700603
[40] = tested on: Candida albicans F7-39/IDE99
[41] = tested on: Staphylococcus aureus 1
[42] = tested on: Bacillus subtilis 168
[43] = tested on: Escherichia coli B
[44] = tested on: Staphylococcus aureus ATCC 43300
[45] = tested on: Micrococcus luteus CCM 144

- MIC [1]: ≥ 96 µM
Compound: C[C@H](NC(=O)[C@H](Cc1ccccc1)NC(=O)CNC(=O)[C@@H](N)CCCN=C(N)N)C(=O)N[C@@H](CCCN=C(N)N)C(=O)N[C@@H](CCCN=C(N)N)C(=O)O [RGFARR]

- MIC [1]: ≥ 48 µM
Compound: NCC(=O)N1CCC[C@H]1C(=O)N[C@H]1CSSC[C@@H](C(=O)O)NC(=O)CNC(=O)[C@H](CO)NC(=O)[C@H](Cc2ccccc2)NC1=O [GPCFSGC]

- MIC [2]: 32 µM (≈ 55.3 µg/mL)
- MIC [3]: ≥ 64 µM
Compound: CC(C)C[C@H](NC(=O)CNC(=O)[C@H](CC(N)=O)NC(=O)[C@@H](NC(=O)[C@@H](NC(=O)CNC(=O)[C@H](CC(C)C)NC(=O)[C@H](C)NC(=O)[C@H](CC(=O)O)NC(=O)[C@H](CC(N)=O)NC(=O)[C@H](CC(C)C)NC(=O)[C@H](CC(C)C)NC(=O)[C@@H](N)CC(N)=O)[C@@H](C)O)C(C)C)C(=O)N[C@@H](CC(C)C)C(=O)NCC(=O)N[C@@H](CCCN=C(N)N)C(=O)N[C@@H](CO)C(=O)O [NLLNDALGTVNGLLGRS]

- MIC [4]: ≥ 88.6 µM
- MIC [5]: 5.54 µM (≈ 8 µg/mL)
- MIC [2]: 22.1 µM (≈ 32 µg/mL)
- MIC [6]: ≥ 88.6 µM
- MIC [7]: 22.1 µM (≈ 32 µg/mL)
- MIC [8]: 22.1 µM (≈ 32 µg/mL)
- MIC [9]: 22.1 µM (≈ 32 µg/mL)
- MIC [10]: ≥ 88.6 µM
Compound: CC[C@H](C)[C@H](N)C(=O)N[C@@H](CCCCN)C(=O)N[C@@H](Cc1c[nH]c2ccccc12)C(=O)N[C@@H](CCCCN)C(=O)N[C@@H](CCCN=C(N)N)C(=O)N[C@@H](Cc1c[nH]c2ccccc12)C(=O)N[C@@H](Cc1c[nH]c2ccccc12)C(=O)N[C@@H](Cc1c[nH]c2ccccc12)C(=O)N[C@@H](CCCN=C(N)N)C(=O)O [IKWKRWWWR]

- MIC [11]: 0.5 µM (≈ 0.735 µg/mL)
- MIC [12]: 64 µM (≈ 94.1 µg/mL)
- MIC [13]: ≥ 64 µM
- MIC [14]: ≥ 64 µM
- MIC [15]: ≥ 64 µM
- MIC [16]: 64 µM (≈ 94.1 µg/mL)
- MIC [17]: ≥ 64 µM
Compound: CC[C@H](C)[C@H](NC(=O)[C@@H](N)Cc1ccc(O)cc1)C(=O)N1CCC[C@H]1C(=O)N[C@@H](CCC(N)=O)C(=O)N1CCC[C@H]1C(=O)N[C@@H](CCCN=C(N)N)C(=O)N1CCC[C@H]1C(=O)N1CCC[C@H]1C(=O)N[C@@H](Cc1cnc[nH]1)C(=O)N1CCC[C@H]1C(=O)N[C@@H](CCCN=C(N)N)C(=O)N[C@@H](CC(C)C)C(=O)O [YIPQPRPPHPRL]

- MIC [18]: 4.47 µM (≈ 8.18 µg/mL)
- MIC [12]: 69.8 µM (≈ 128 µg/mL)
- MIC [19]: 17.9 µM (≈ 32.7 µg/mL)
- MIC [20]: 8.93 µM (≈ 16.4 µg/mL)
- MIC [15]: 8.93 µM (≈ 16.4 µg/mL)
- MIC [16]: 8.93 µM (≈ 16.4 µg/mL)
- MIC [21]: ≥ 279 µM
- MIC [22]: 25 µM (≈ 45.8 µg/mL)
- MIC [23]: 0.794 µM (≈ 1.45 µg/mL)
Compound: CC(=O)N[C@@H](CCCN=C(N)N)C(=O)N[C@@H](Cc1c[nH]c2ccccc12)C(=O)N[C@H](C(=O)N[C@@H](Cc1c[nH]c2ccccc12)C(=O)N[C@@H](CCCN=C(N)N)C(=O)NCC(=O)N[C@@H](CO)C(=O)NCC(=O)N[C@@H](CCCN=C(N)N)C(=O)N[C@@H](Cc1c[nH]c2ccccc12)C(=O)N[C@H](C(=O)N[C@@H](Cc1c[nH]c2ccccc12)C(=O)N[C@@H](CCCN=C(N)N)C(N)=O)[C@@H](C)O)[C@@H](C)O [RWTWRGSGRWTWR]

- MIC [24]: ≥ 64 µM
- MIC [25]: 32 µM (≈ 73.7 µg/mL)
- MIC [26]: ≥ 128 µM
- MIC [27]: ≥ 32 µM
- MIC [2]: 4 µM (≈ 9.21 µg/mL)
- MIC [28]: 8 µM (≈ 18.4 µg/mL)
- MIC [29]: 2.67 µM (≈ 6.15 µg/mL)
- MIC [30]: 8 µM (≈ 18.4 µg/mL)
- MIC [31]: 32 µM (≈ 73.7 µg/mL)
- MIC [32]: 16 µM (≈ 36.8 µg/mL)
- MIC [33]: ≥ 64 µM
- MIC [34]: 4 µM (≈ 9.21 µg/mL)
- MIC [35]: ≥ 32 µM
- MIC [36]: 8 µM (≈ 18.4 µg/mL)
- MIC [37]: 16 µM (≈ 36.8 µg/mL)
Compound: CSCC[C@H](NC(=O)[C@H](Cc1ccccc1)NC(=O)CNC(=O)[C@H](Cc1cnc[nH]1)NC(=O)[C@H](CC(C)C)NC(=O)[C@H](CO)NC(=O)CN)C(=O)N[C@@H](Cc1ccc(O)cc1)C(=O)N[C@@H](CCCN=C(N)N)C(=O)N[C@@H](Cc1ccc(O)cc1)C(=O)N[C@@H](CC(C)C)C(=O)N[C@@H](CCCCN)C(=O)N[C@@H](CC(N)=O)C(=O)N[C@@H](CCSC)C(=O)N[C@H](C(=O)N[C@@H](CC(C)C)C(=O)N[C@@H](CC(N)=O)C(=O)N[C@@H](CC(C)C)C(=O)N[C@@H](Cc1ccccc1)C(N)=O)C(C)C [GSLHGFMYRYLKNMVLNLF]

- MIC [38]: 64 µM (≈ 114 µg/mL)
- MIC [39]: 64 µM (≈ 114 µg/mL)
- MIC [2]: 128 µM (≈ 228 µg/mL)
- MIC [31]: 64 µM (≈ 114 µg/mL)
- MIC [3]: ≥ 32 µM
Compound: CC(C)C[C@H](NC(=O)[C@H](C)NC(=O)[C@H](CO)NC(=O)[C@H](CCCCN)NC(=O)[C@H](CC(C)C)NC(=O)[C@H](CC(C)C)NC(=O)[C@@H](N)CC(N)=O)C(=O)N[C@@H](CCCCN)C(=O)N[C@H](C(=O)N[C@H](C(=O)N[C@@H](CC(N)=O)C(=O)N[C@@H](CCCCN)C(=O)N[C@@H](CC(C)C)C(=O)N[C@@H](CC(C)C)C(=O)N[C@@H](C)C(=O)N[C@@H](C)C(=O)N[C@@H](CO)C(N)=O)C(C)C)[C@@H](C)O [NLLKSALKTVNKLLAAS]

- MIC [18]: 2 µM (≈ 3.8 µg/mL)
- MIC [40]: 13 µM (≈ 24.7 µg/mL)
- MIC [41]: 1.8 µM (≈ 3.42 µg/mL)
- MIC [12]: 24 µM (≈ 45.6 µg/mL)
- MIC [13]: 1.6 µM (≈ 3.04 µg/mL)
- MIC [42]: 7 µM (≈ 13.3 µg/mL)
- MIC [31]: 13 µM (≈ 24.7 µg/mL)
- MIC [43]: 2.5 µM (≈ 4.75 µg/mL)
- MIC [44]: 2.5 µM (≈ 4.75 µg/mL)
- MIC [45]: 3 µM (≈ 5.7 µg/mL)
Compound: CC[C@H](C)[C@H](NC(=O)CN)C(=O)N[C@@H](CC(C)C)C(=O)N[C@@H](CO)C(=O)N[C@@H](CO)C(=O)N[C@@H](CC(C)C)C(=O)N[C@@H](Cc1c[nH]c2ccccc12)C(=O)N[C@@H](CCCCN)C(=O)N[C@@H](CCCCN)C(=O)N[C@@H](CC(C)C)C(=O)N[C@@H](CCCCN)C(=O)N[C@@H](CCCCN)C(=O)N[C@@H](Cc1c[nH]c2ccccc12)C(=O)N[C@H](C(=O)N[C@@H](C)C(=O)N[C@@H](CCCCN)C(N)=O)[C@@H](C)CC [GILSSLWKKLKKWIAK]
